Our source for the Activity, inhibition and IC50 values is ChEMBL document CHEMBL3046266, “Synthesis of curcumin and ethylcurcumin bioconjugates as potential antitumor agents” (Med Chem Res, 2012).

The source made the active and inactive calls. No cut-off for these calls is given here.

The test system of data set [1] is BT-549. The data set is described as follows: Cytotoxicity against Homo sapiens (human) BT549 cells up to 25 uM by neutral red staining. The class given is functional, cell-based.
Data set [2] relates to KB. The data set is described as follows: Cytotoxicity against Homo sapiens (human) KB cells up to 25 uM by neutral red staining. The class given is functional, cell-based.
Data set [3] relates to SK-MEL. The data set is described as follows: Cytotoxicity against Homo sapiens (human) SK-MEL cells up to 25 uM by neutral red staining. Format: functional, cell-based.
In data set [4] the target is T1, DNA topoisomerase 2-alpha (Homo sapiens, UniProt P11388). Nature of the data set: Inhibition of Homo sapiens (human) topoisomerase 2 assessed as decatenation of KDNA up to 25 uM by agarose gel electrophoresis.
Data set [5] deals with T2, DNA topoisomerase 1 (Homo sapiens) (UniProt P11387).
T2 sequence (whole entry): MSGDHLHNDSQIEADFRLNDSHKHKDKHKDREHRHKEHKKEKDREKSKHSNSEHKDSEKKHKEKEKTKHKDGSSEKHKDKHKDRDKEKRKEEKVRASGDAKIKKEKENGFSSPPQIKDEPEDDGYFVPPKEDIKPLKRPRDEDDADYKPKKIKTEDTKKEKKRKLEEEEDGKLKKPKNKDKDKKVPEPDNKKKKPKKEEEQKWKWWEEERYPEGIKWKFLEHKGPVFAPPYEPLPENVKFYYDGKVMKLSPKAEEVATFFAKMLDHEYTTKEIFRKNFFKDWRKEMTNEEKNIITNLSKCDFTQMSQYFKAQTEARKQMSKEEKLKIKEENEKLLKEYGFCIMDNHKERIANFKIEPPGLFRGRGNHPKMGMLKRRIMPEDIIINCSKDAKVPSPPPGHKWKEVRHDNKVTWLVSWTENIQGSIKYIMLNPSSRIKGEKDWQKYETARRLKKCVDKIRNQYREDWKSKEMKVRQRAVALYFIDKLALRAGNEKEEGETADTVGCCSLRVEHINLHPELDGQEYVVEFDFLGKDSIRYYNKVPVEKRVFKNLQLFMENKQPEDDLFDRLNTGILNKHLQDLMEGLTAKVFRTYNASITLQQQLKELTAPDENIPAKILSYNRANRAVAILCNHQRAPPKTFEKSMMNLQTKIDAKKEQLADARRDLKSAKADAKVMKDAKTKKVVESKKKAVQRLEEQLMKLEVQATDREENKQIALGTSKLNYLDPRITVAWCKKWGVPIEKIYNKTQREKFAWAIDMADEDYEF
The data set is described as follows: Inhibition of Homo sapiens (human) topoisomerase 1 assessed as relaxation of supercoiled DNA up to 25 uM by agarose gel electrophoresis.

Data set [6] deals with T2, DNA topoisomerase 1 (Homo sapiens). The data set is described as follows: Inhibition of Homo sapiens (human) topoisomerase 1 assessed as production of nicked DNA up to 25 uM by agarose gel electrophoresis.
Data set [7] has as its system LLC-PK1. Nature of the data set: Cytotoxicity against Sus scrofa (pig) LLC-PK1 cells up to 25 uM by neutral red staining. The class given is cell-based.
The subject of data set [8] is Vero. The data set is described as follows: Cytotoxicity against Chlorocebus aethiops (African green monkey) Vero cells up to 25 uM by neutral red staining. Format: cell-based. Conditions: chlorocebus sabaeus.
The test system of data set [9] is SK-OV-3. The data set is described as follows: Cytotoxicity against Homo sapiens (human) SKOV3 cells up to 25 uM by neutral red staining. Format: functional, cell-based.
For data set [10], the system named is SK-MEL. The data set is described as follows: Cytotoxicity against Homo sapiens (human) SK-MEL cells by neutral red staining. The class given is functional, cell-based.
Data set [11] has as its system KB. The data set is described as follows: Cytotoxicity against Homo sapiens (human) KB cells by neutral red staining. The class given is functional, cell-based.
Data set [12] addresses T1, DNA topoisomerase 2-alpha. Nature of the data set: Inhibition of Homo sapiens (human) topoisomerase 2 assessed as decatenation of KDNA by agarose gel electrophoresis.
The test system of data set [13] is LLC-PK1. The data set is described as follows: Cytotoxicity against Sus scrofa (pig) LLC-PK1 cells by neutral red staining. The class given is cell-based.
For data set [14], the system named is Vero. The data set is described as follows: Cytotoxicity against Chlorocebus aethiops (African green monkey) Vero cells by neutral red staining. The class given is cell-based. The note with it: chlorocebus sabaeus.
In data set [15] the test system is BT-549. The data set is described as follows: Cytotoxicity against Homo sapiens (human) BT549 cells by neutral red staining. Format: functional, cell-based.
Data set [16] relates to SK-OV-3. The data set is described as follows: Cytotoxicity against Homo sapiens (human) SKOV3 cells by neutral red staining. The class given is functional, cell-based.

T1 sequence (P11388 whole entry): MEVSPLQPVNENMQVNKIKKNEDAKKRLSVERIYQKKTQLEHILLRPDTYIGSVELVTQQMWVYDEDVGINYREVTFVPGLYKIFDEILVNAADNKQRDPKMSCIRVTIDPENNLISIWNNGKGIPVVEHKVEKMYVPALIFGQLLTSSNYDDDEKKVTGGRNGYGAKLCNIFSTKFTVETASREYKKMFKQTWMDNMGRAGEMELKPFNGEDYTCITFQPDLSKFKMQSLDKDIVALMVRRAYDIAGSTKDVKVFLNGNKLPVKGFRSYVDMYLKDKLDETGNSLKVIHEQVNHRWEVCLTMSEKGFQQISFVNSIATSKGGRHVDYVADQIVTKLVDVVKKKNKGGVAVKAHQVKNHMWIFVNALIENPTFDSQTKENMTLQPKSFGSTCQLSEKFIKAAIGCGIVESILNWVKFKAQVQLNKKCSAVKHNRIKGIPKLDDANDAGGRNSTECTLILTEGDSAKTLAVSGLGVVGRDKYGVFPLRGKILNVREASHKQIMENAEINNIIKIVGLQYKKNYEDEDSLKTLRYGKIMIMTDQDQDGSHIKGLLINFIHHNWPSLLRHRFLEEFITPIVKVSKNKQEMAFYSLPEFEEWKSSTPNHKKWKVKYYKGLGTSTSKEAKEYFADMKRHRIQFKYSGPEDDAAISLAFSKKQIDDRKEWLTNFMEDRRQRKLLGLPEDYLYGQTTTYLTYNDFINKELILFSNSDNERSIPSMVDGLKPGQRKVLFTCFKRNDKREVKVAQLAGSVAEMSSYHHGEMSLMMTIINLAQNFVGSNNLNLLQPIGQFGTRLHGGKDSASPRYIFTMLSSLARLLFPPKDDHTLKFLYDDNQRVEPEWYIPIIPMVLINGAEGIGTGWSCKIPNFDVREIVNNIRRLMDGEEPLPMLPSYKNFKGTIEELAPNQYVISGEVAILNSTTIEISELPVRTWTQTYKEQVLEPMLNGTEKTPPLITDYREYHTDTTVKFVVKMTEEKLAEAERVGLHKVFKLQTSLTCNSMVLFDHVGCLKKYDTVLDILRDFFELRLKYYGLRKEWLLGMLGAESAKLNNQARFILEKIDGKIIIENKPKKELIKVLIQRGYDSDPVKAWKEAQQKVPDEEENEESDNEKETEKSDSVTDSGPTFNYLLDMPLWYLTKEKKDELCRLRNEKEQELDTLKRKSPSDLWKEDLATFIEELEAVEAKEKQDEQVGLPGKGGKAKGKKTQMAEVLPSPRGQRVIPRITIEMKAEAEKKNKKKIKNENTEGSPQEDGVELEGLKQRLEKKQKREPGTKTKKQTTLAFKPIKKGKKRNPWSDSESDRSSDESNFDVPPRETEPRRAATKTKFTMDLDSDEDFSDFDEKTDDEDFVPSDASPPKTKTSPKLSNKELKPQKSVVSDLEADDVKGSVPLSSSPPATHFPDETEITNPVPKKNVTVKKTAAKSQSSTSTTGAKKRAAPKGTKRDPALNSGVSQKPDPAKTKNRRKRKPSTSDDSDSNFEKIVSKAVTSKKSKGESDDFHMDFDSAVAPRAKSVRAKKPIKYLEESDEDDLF

For `CCOc1cc(/C=C/C(=O)CC(=O)/C=C/c2ccc(OC(=O)CCNCCN(C)C)c(OCC)c2)ccc1OC(=O)CCNCCN(C)C`, the result with BT-549 [1], in the data set with KB [2], with SK-MEL [3] and in the data set with SK-OV-3 [9] was inactive. Moreover, the inhibition entry in data set [4], in data set [5] and in [6] was “inactive” in each case. For the same molecule, the Activity entry with LLC-PK1 [7] and in the data set on Vero [8] was “Non-toxic” each time.

The term IC50 denotes the concentration that gives 50% inhibition. In the case of `COc1cc(/C=C/C(=O)CC(=O)/C=C/c2ccc(OC(=O)CNc3ccc(S(N)(=O)=O)cc3)c(OC)c2)ccc1OC(=O)CNc1ccc(S(N)(=O)=O)cc1`, the IC50 in the data set on SK-MEL [10] was 18.8 µM; in the data set on KB [11], 14 µM; in data set [12] it was 3 µM; in the data set with LLC-PK1 [13], 15.8 µM; in the data set on Vero [14], 11 µM; in the data set on BT-549 [15], 10.5 µM. The same molecule gave an IC50 in the data set on SK-OV-3 [16] of 22.5 µM. Further, the inhibition entry in data set [5] and in data set [6] was “inactive” each time.

Turning to `COc1cc(/C=C/C(=O)CC(=O)/C=C/c2ccc(OC(=O)CCNCCCl)c(OC)c2)ccc1OC(=O)CCNCCCl`, the IC50 amounted to 15 µM in the data set on SK-MEL [10]; 11.5 µM with KB [11]; 2.9 µM in data set [12]; 16.8 µM in the data set with LLC-PK1 [13]; 12.5 µM in the data set on Vero [14]; 11 µM with BT-549 [15]. For the same molecule, in the data set on SK-OV-3 [16], the IC50 was 23.8 µM. The inhibition entry in [5] and in [6] was “inactive” in each case.

As for `CCOc1cc(/C=C/C(=O)CC(=O)/C=C/c2ccc(OC(=O)CNCCN(CC)CC)c(OCC)c2)ccc1OC(=O)CNCCN(CC)CC`, the half-inhibitory concentration (IC50) is 11.5 µM with SK-MEL [10]; 11.5 µM in the data set on KB [11]; 10 µM in [12]; 5.8 µM in the data set on LLC-PK1 [13]; 5 µM with Vero [14]; 10 µM in the data set on BT-549 [15]. In the data set with SK-OV-3 [16], this molecule returned an IC50 of 14.8 µM. The inhibition result in [5] and in data set [6] was “inactive” throughout.
